Test results as given in US9402842B2, “Synthesis and use of dual tyrosyl-DNA phosphodiesterase I (Tdp1)—topoisomerase I (Top1) inhibitors” (Purdue Research Foundation, priority 2012, dated 2016).
Each block holds one molecule with its values, some of them ahead of it.

Key:
[1] = target: human recombinant Top1 (Homo sapiens (Human), UniProt P11387); test: Topoisomerase I-mediated DNA cleavage reactions; settings: for Top1, compound-induced DNA cleavage due to Top1 inhibition: semiquantitative scale relative to 1 μM camptothecin (90) or MJ-III-65 (91)
Experimental: Topoisomerase I-Mediated DNA Cleavage Reactions.
DNA cleavage reactions were prepared as previously reported with the exception of the DNA substrate. […] Unincorporated [^32P]dGTP was removed using mini Quick Spin DNA columns (Roche, Indianapolis, Ind.), and the eluate containing the 3′-end-labeled DNA substrate was collected. Approximately 2 nM radiolabeled DNA substrate was incubated with recombinant Top1 in 20 μL of reaction buffer [10 mM Tris-HCl (pH 7.5), 50 mM KCl, 5 mM MgCl2, 0.1 mM EDTA, and 15 μg/mL BSA] at 25° C. for 20 min in the presence of various concentrations of compounds. The reactions were terminated by adding SDS (0.5% final concentration) followed by the addition of two volumes of loading dye (80% formamide, 10 mM sodium hydroxide, 1 mM sodium EDTA, 0.1% xylene cyanol, and 0.1% bromphenol blue). Aliquots of each reaction mixture were subjected to 20% denaturing PAGE. Gels were dried and visualized by using a phosphoimager and ImageQuant software (Molecular Dynamics).
Top1 reactions were performed as recently described. […] The reactions were terminated by adding SDS (0.5% final concentration) followed by the addition of two volumes of loading dye (80% formamide, 10 mM sodium hydroxide, 1 mM sodium EDTA, 0.1% xylene cyanol, and 0.1% bromphenol blue). Reactions were subjected to 20% denaturing PAGE. Gels were dried and visualized by using a Typhoon 8600 and ImageQuant software (Molecular Dynamics).

[2] = target: recombinant human Tdp1 (Homo sapiens (Human), UniProt Q9NUW8); test: Gel-based assay measuring the inhibition of recombinant Tdp1; type: biochemical; settings: for IC50: determined by duplicate, read-out: Tdp1 (semiquantitative IC50 scale); for Tdp1 inhibitory activity (in words): recombinant Tdp1
recombinant human Tdp1, sequence (Q9NUW8 whole entry): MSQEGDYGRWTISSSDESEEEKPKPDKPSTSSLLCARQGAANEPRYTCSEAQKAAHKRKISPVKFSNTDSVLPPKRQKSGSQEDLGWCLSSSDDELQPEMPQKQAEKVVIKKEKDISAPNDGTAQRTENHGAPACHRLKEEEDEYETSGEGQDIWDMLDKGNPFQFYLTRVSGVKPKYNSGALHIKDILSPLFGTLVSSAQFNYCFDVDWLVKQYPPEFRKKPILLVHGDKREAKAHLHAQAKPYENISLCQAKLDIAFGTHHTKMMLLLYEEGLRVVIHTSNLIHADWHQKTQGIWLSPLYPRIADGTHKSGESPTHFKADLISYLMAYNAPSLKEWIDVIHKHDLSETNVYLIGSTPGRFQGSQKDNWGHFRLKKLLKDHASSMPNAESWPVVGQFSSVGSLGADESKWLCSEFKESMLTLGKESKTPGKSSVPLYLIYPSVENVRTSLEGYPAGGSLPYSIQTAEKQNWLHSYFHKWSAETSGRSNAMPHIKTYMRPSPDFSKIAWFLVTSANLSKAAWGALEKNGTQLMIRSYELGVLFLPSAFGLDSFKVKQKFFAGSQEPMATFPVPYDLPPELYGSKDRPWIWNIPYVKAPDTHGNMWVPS
Experimental: Tdp1 inhibitory activity was measured by the drug's ability to inhibit the hydrolysis of the phosphodiester linkage between tyrosine and the 3′-end of the DNA substrate, and to prevent the generation of an oligonucleotide with a free 3′-phosphate (N14P). Therefore, the disappearance of the gel band for N14P indicated Tdp1 inhibition.
Gel-based Assay Measuring the Inhibition of Recombinant Tdp1.
A 5′-[^32P]-labeled single-stranded DNA oligonucleotide containing a 3′-phosphotyrosine (N14Y) was generated as described by Dexheimer et al. The DNA substrate was then incubated with 5 pM recombinant Tdp1 in the absence or presence of inhibitor for 15 min at room temperature in a buffer containing 50 mM Tris HCl, pH 7.5, 80 mM KCl, 2 mM EDTA, 1 mM DTT, 40 μg/ml BSA and 0.01% Tween-20. […] Gel images were scanned using a Typhoon 8600 (GE Healthcare) and densitometric analyses were performed using the ImageQuant software (GE Healthcare).

human recombinant Top1, sequence (P11387 whole entry): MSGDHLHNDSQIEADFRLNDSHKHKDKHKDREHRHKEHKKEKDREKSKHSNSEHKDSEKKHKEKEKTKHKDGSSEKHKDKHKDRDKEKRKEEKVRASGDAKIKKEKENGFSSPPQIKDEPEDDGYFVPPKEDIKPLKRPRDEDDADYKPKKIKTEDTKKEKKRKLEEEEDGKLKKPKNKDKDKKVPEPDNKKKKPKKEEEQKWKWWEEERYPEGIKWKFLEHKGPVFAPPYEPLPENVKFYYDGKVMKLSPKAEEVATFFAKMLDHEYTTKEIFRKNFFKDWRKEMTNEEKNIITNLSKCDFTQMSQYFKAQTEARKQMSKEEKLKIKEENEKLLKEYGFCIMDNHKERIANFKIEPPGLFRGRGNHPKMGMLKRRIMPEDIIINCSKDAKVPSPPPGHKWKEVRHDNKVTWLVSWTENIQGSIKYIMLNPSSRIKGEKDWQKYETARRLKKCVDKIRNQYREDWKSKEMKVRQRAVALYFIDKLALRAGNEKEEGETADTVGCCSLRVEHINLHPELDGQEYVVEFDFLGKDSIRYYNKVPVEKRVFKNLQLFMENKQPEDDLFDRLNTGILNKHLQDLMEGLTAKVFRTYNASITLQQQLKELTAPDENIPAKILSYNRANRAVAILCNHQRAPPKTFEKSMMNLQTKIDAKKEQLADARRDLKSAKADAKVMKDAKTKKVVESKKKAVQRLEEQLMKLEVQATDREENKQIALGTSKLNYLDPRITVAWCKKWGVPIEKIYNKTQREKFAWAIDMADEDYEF

SMILES: COC(=O)C(=O)Nc1ccc2c3c(n(C)c(=O)c2c1)-c1ccccc1C3=O [Compound 9 of (B), Methyl 2-[(6-Methyl-5,11-dioxo-6,11-dihydro-5H-indeno[1,2-c]isoquinolin-3-yl)amino]-2-oxoacetate]
Top1, compound-induced DNA cleavage due to Top1 inhibition [1]: 0

SMILES: COC(=O)CC(=O)Nc1ccc2c3c(n(C)c(=O)c2c1)-c1ccccc1C3=O [Compound 10 of (B), Methyl 3-[(6-Methyl-5,11-dioxo-6,11-dihydro-5H-indeno[1,2-c]isoquinolin-3-yl)amino]-3-oxopropanoate]
Top1, compound-induced DNA cleavage due to Top1 inhibition [1]: 0

SMILES: COC(=O)CCC(=O)Nc1ccc2c3c(n(C)c(=O)c2c1)-c1ccccc1C3=O [Compound 11 of (B), Methyl 4-[(6-Methyl-5,11-dioxo-6,11-dihydro-5H-indeno[1,2-c]isoquinolin-3-yl)amino]-4-oxobutanoate]
Top1, compound-induced DNA cleavage due to Top1 inhibition [1]: (+)

SMILES: COC(=O)CCCC(=O)Nc1ccc2c3c(n(C)c(=O)c2c1)-c1ccccc1C3=O [Compound 12 of (B), Methyl 5-[(6-Methyl-5,11-dioxo-6,11-dihydro-5H-indeno[1,2-c]isoquinolin-3-yl)amino]-5-oxopentanoate]
Top1, compound-induced DNA cleavage due to Top1 inhibition [1]: +

SMILES: COC(=O)CCCCC(=O)Nc1ccc2c3c(n(C)c(=O)c2c1)-c1ccccc1C3=O [Compound 13 of (B), Methyl 6-[(6-Methyl-5,11-dioxo-6,11-dihydro-5H-indeno[1,2-c]isoquinolin-3-yl)amino]-6-oxohexanoate]
Top1, compound-induced DNA cleavage due to Top1 inhibition [1]: 0

SMILES: COC(=O)CC(=O)Nc1ccc2c3c(n(CCCNC(=O)OC(C)(C)C)c(=O)c2c1)-c1ccccc1C3=O [Compound 18 of (B), Methyl 3-[(6-(3-((tert-Butoxycarbonyl)amino)propyl)-5,11-dioxo-6,11-dihydro-5H-indeno[1,2-c]isoquinolin-3-yl)amino]-3-oxopropanoate]
Top1, compound-induced DNA cleavage due to Top1 inhibition [1]: 0
IC50 [2]: > 111 µM

SMILES: COC(=O)CCC(=O)Nc1ccc2c3c(n(CCCNC(=O)OC(C)(C)C)c(=O)c2c1)-c1ccccc1C3=O [Compound 19 of (B), Methyl 4-[(6-(3-((tert-Butoxycarbonyl)amino)propyl)-5,11-dioxo-6,11-dihydro-5H-indeno[1,2-c]isoquinolin-3-yl)amino]-4-oxobutanoate]
Top1, compound-induced DNA cleavage due to Top1 inhibition [1]: 0
IC50 [2]: > 111 µM

SMILES: COC(=O)CCCC(=O)Nc1ccc2c3c(n(CCCNC(=O)OC(C)(C)C)c(=O)c2c1)-c1ccccc1C3=O [Compound 20 of (B), Methyl 5-[(6-(3-((tert-Butoxycarbonyl)amino)propyl)-5,11-dioxo-6,11-dihydro-5H-indeno[1,2-c]isoquinolin-3-yl)amino]-5-oxopentanoate]
Top1, compound-induced DNA cleavage due to Top1 inhibition [1]: 0
IC50 [2]: > 111 µM

SMILES: COC(=O)CCC(=O)Nc1ccc2c3c(n(CCCN)c(=O)c2c1)-c1ccccc1C3=O [Compound 24 of (B), Methyl 4-[(6-(3-Aminopropyl)-5,11-dioxo-6,11-dihydro-5H-indeno[1,2-c]isoquinolin-3-yl)amino]-4-oxobutanoate]
Top1, compound-induced DNA cleavage due to Top1 inhibition [1]: (+)

SMILES: CC(C)(C)OC(=O)NCCCn1c2c(c3ccc(NC(=O)CCC(=O)O)cc3c1=O)C(=O)c1ccccc1-2 [Compound 29 of (B), 4-[(6-(3-((tert-Butoxycarbonyl)amino)propyl)-5,11-dioxo-6,11-dihydro-5H-indeno[1,2-c]isoquinolin-3-yl)amino]-4-oxobutanoic Acid]
Top1, compound-induced DNA cleavage due to Top1 inhibition [1]: (+)
IC50 [2]: 37 to 111 µM

Tdp1 inhibitory activity (in words) [2]: weakly active
SMILES: Cc1ccc(S(=O)(=O)OCCCCCCCn2c3c(c4ccccc4c2=O)C(=O)c2ccccc2-3)cc1 [Compound 29, 7-(5,11-Dioxo-5H-indeno[1,2-c]isoquinolin-6(11H)-yl)heptyl-4-methyl-benzenesulfonate]

SMILES: CC(C)(C)OC(=O)NCCCn1c2c(c3ccc(NC(=O)CCCC(=O)O)cc3c1=O)C(=O)c1ccccc1-2 [Compound 30 of (B), 5-[(6-(3-((tert-Butoxycarbonyl)amino)propyl)-5,11-dioxo-6,11-dihydro-5H-indeno[1,2-c]isoquinolin-3-yl)amino]-5-oxopentanoic Acid]
Top1, compound-induced DNA cleavage due to Top1 inhibition [1]: 0
IC50 [2]: > 111 µM

SMILES: O=C1c2ccccc2-c2c1c1ccccc1c(=O)n2CCCl [Compound 30, 6-(2-Chloroethyl)-5H-indeno[1,2-c]isoquinoline-5,11(6H)-dione]
Tdp1 inhibitory activity (in words) [2]: inactive

SMILES: CC(C)(C)OC(=O)NCCCn1c2c(c3ccc(NC(=O)CCCCC(=O)O)cc3c1=O)C(=O)c1ccccc1-2 [Compound 31 of (B), 6-[(6-(3-((tert-Butoxycarbonyl)amino)propyl)-5,11-dioxo-6,11-dihydro-5H-indeno[1,2-c]isoquinolin-3-yl)amino]-6-oxohexanoic Acid]
Top1, compound-induced DNA cleavage due to Top1 inhibition [1]: (+)

SMILES: Cl.NCCCn1c2c(c3ccc(NC(=O)C(=O)O)cc3c1=O)C(=O)c1ccccc1-2 [Compound 32 of (B), 2-[(6-(3-Aminopropyl)-5,11-dioxo-6,11-dihydro-5H-indeno[1,2-c]isoquinolin-3-yl)amino]-2-oxoacetic Acid Hydrochloride]
Top1, compound-induced DNA cleavage due to Top1 inhibition [1]: +

SMILES: Cl.NCCCn1c2c(c3ccc(NC(=O)CC(=O)O)cc3c1=O)C(=O)c1ccccc1-2 [Compound 33 of (B), 3-[(6-(3-Aminopropyl)-5,11-dioxo-6,11-dihydro-5H-indeno[1,2-c]isoquinolin-3-yl)amino]-3-oxopropanoic Acid Hydrochloride]
Top1, compound-induced DNA cleavage due to Top1 inhibition [1]: +

SMILES: Cl.NCCCn1c2c(c3ccc(NC(=O)CCC(=O)O)cc3c1=O)C(=O)c1ccccc1-2 [Compound 34 of (B), 4-[(6-(3-Aminopropyl)-5,11-dioxo-6,11-dihydro-5H-indeno[1,2-c]isoquinolin-3-yl)amino]-4-oxobutanoic Acid Hydrochloride]
Top1, compound-induced DNA cleavage due to Top1 inhibition [1]: +

SMILES: Cl.NCCCn1c2c(c3ccc(NC(=O)CCCC(=O)O)cc3c1=O)C(=O)c1ccccc1-2 [Compound 35 of (B), 5-[(6-(3-Aminopropyl)-5,11-dioxo-6,11-dihydro-5H-indeno[1,2-c]isoquinolin-3-yl)amino]-5-oxopentanoic Acid Hydrochloride]
Top1, compound-induced DNA cleavage due to Top1 inhibition [1]: 0

SMILES: Cl.NCCCn1c2c(c3ccc(NC(=O)CCCCC(=O)O)cc3c1=O)C(=O)c1ccccc1-2 [Compound 36 of (B), 6-[(6-(3-Aminopropyl)-5,11-dioxo-6,11-dihydro-5H-indeno[1,2-c]isoquinolin-3-yl)amino]-6-oxohexanoic Acid Hydrochloride]
Top1, compound-induced DNA cleavage due to Top1 inhibition [1]: +

SMILES: CCOC(=O)CNc1ccc2c3c(n(C)c(=O)c2c1)-c1ccccc1C3=O [Compound 38 of (B), Ethyl 2-[(6-Methyl-5,11-dioxo-6,11-dihydro-5H-indeno[1,2-c]isoquinolin-3-yl)amino]acetate]
Top1, compound-induced DNA cleavage due to Top1 inhibition [1]: 0
Tdp1 inhibitory activity (in words) ([2]; listed as 38): inactivity

Top1 inhibition (in words) [1]: active
suppression of Top1-mediated DNA cleavage at high drug concentration ([1]; high concentration of 100 μM): complete suppression
Top1, compound-induced DNA cleavage due to Top1 inhibition [1]: +++
SMILES: CS(=O)(=O)NCCCCCCCn1c2c(c3ccccc3c1=O)C(=O)c1ccccc1-2 [Compound 85]
